Data taken from US5863716A, “Treatment of plasmodium” (The Leland Stanford Junior University Board of Trustees, priority 1997, dated 1999).

How the values were obtained:
[1] = Toxicity in mice; conditions: mouse, in vivo; over 16 days; preliminary studies; read-out: dose with no significant toxicity
Description: (§1) Preparation of test compounds, toxicity and pharmacokinetics in mice: PPMP and its derivatives are made up as a stock solution in ethanol, diluted into sterile saline, warmed up to 37° C. and delivered once or several times a day, either intraperitoneally (i.p.) or intravenously (i.v.). The animals are monitored on a daily basis for signs of toxicities which (from mild to extreme) include abnormal grooming behavior, loss or thinning of hair, enlargement of spleen and loss of activity. 0 to 30 micrograms PPMP/per gm of mouse body weight is administered. Effective anti-parasite concentrations of PPMP are predicted to be at ~2 micrograms of PPMP/gm of mouse body weight. Based on preliminary studies, 8-10 micrograms of PPMP per gram of (mouse) body weight have no significant toxicity over 16 days. Compounds and levels found to be non toxic over 30 days will be further tested for their effects on infections of P. yoelii and P. chabaudi.

[2] = tested on: P. yoelii and P. chabaudi; test: Anti-parasite effect in infected mice; type: in vivo, mouse
Description: as §1
Effects of PPMP/other lead compounds on non lethal and lethal strains of P. yoelii and P. chabaudi. Both lethal and non lethal strains of P. yoelii have a 24 h cycle. For both strains, parasites can be injected i.p., with an innoculum of 5×10^5 parasites. […]
Mice are injected with the inhibitor on day 1. […] On subsequent days the drugs is delivered once a day and the parasitemia is monitored by tail bleeds. […]

[3] = tested on: DNA synthesis; test: Effect on DNA synthesis; type: cell-based
[4] = tested on: protein synthesis; test: Effect on protein synthesis; type: cell-based
[5] = tested on: P. falciparum strain FCB; test: Inhibition of intraerythrocytic growth in culture, Giemsa staining after 24 h; type: cell-based, Plasmodium falciparum; conditions: Plasmodium falciparum; 5 μM added to 0-12 h rings; Giemsa staining after 24 h; read-out: [%] inhibition of growth
Source text: (§2) P. falciparum strain FCB was used for all experiments and cultured in vitro in according to a modification of the method of Trager and Jensen left off. Trager, W. and Jensen, J. B. (1976) Human malaria in continuous culture., Science (Wash. D.C.) 193: 673-675 Haldar, K., Ferguson, M. A. J. and Cross, G. A. M. (1985) Acylation of a Plasmodium falciparum merozoite surface antigen via sn-1, 2-diacyl glycerol. J. Biol. Chem. 260; 4969-4974. The culture medium contained RPMI 1640 supplemented with 25 Mm hepes, Ph 7.4/11 […] glucose/92 μM hypoxanthine/0.18% sodium bicarbonate/25 μM gentamicin and 10% AB^+ human sera. The parasites were grown in A^+ erythrocytes at 2.5-5% hematocrit. Parasite cultures were synchronized by separation of the early and late stages on a Percoll gradient. The subsequent reincubation of these stages in culture were used to obtain cells 12-24 h in the life cycle. Inhibition of sphingomyelin biosynthetic activity using 5 μM of the various compounds was carried out as described in Example 1. 5 μM of the various compounds were added to 0-12 h rings in the culture medium and cells were examined by Giemsa staining after 24 h.

[6] = tested on: sphingomyelin synthase; test: Inhibition of plasmodial sphingomyelin biosynthesis in intact infected erythrocytes (C6-NBD-ceramide to C6-NBD-sphingomyelin, TLC); type: cell-based, Plasmodium falciparum
Description: 1×10^8 infected cells 24 h after invasion were washed serum-free in RPMI 1640 and preincubated for thirty min at 37° C. in 1 ml of RPMI 1640 containing 0-5 μM or 0-500 μM of PPMP. (C6-NBD-ceramide (N-[7-(4-nitrobenzo-2-oxa-1,3-diazide)]-6-aminocaproyl-D-erythro-sphingosine) was added to each sample at a final concentration of 5 μM, the samples further incubated for 30 min at 37° C. and cellular lipids extracted. C6-NBD-sphingomyelin was resolved by TLC and quantitated by fluorescence spectrophotometry as described previously. Bligh, E. G. and Dyer, W. Y. (1959) A rapid method for total lipid extraction and purification., Can. J. Biochem. Physiol. 37: 911-917. Haldar, K., Uyetake, L., Ahori, N., Elmendorf, H. G. and Lu, W-1. (1991) The accumulation and metabolism of a fluorescent ceramide derivative in Plasmodium falciparum--infected erythrocytes., Mo. Biochem. Parasitol. 49: 143-156. Elmendorf, H. G. and Haldar, K. (1994) Plasmodium falciparum exports the Golgi marker sphingomyelin synthase into a tubovesicular network in the cytoplasm of mature erythrocytes., J. Cell Biol. 124: 449-462. Each value obtained represented the mean of triplicate determinations from five experiments. The arrow bars indicate the standard deviations. The results are depicted in FIG. 1.
as §2

[7] = tested on: P. yoelii; test: Single cycle of expansion in culture, mouse malaria; type: cell-based
Source text: (§3) The human malaria parasite P. falciparum can be grown in monkeys but not in rodents. However, since primates are expensive, rodents are used as a animal first screen. P. yoelii and P. chabaudi are commonly used strains of mouse malaria.

[8] = tested on: P. chabaudi; test: as above; type: cell-based
Source text: as §3

[9] = tested on: P. falciparum schizonts and merozoites; test: Schizont maturation and merozoite invasion in the presence of drug; type: cell-based, Plasmodium falciparum; conditions: 5 μM
Description: Schizont-stage parasites isolated over Percoll were allowed to invade in the presence of RPMI 1640 containing 10% human serum or in the presence of RPMI 1640 containing 10% human serum and 5 μM PPMP. 1×10^8 infected erythrocytes of the appropriate stage were incubated in 1 ml of RPMI 1640 supplemented with 2mg/ml defatted BSA and 20 μM C5 -DMB-ceramide. Cells were washed and fixed as described in Example 5. Sequential micrographs were taken on a custom made laser confocal microscope at 400 nm intervals along the Z axis. Raw data were processed as described previously.
Furthermore, the released daughter merozoites enter red cells to form new rings in the continued presence of the drug. This supports the conclusion that the parasite sphingomyelin synthase is essential only to ring and trophozoite-infected red cells in the first 30 to 36 h of intraerythrocytic development.
To determine whether the parasite specific sphingomyelin synthase activity is required for the development of the TVM, ring-infected erythrocytes inhibited in the enzyme from the onset of intra- erythrocytic development were employed. […] Optical sections obtained by staining with C5 DMB-ceramide were observed. A tubular structure was seen extending from the body of the parasite apparently connected to a larger vesicle in the red cell. In rings formed in the presence of PPMP, the intraerythrocytic structures are seen as discrete domains, separated from each other in all three sections. […] Thus, specific inhibition of the parasite's sphingomyelin biosynthetic activity appears to alter the interconnected "tubovesicular morphology" of the TVM into isolated intraerythrocytic compartments or "vesicles" in ring stage parasites.

## CCCCCCCCCCCCCCCC(=O)N[C@H](CN1CCOCC1)[C@H](O)c1ccccc1 (relative stereo) [PPMP, dl-threo-1-phenyl-2-palmitoylamino-3-morpholino-1-propanol]
[1]
  NOAEL at 384 h: 8 to 10 mg/kg
[2]
  effective anti-parasite concentration (predicted): ~ 2 micrograms of PPMP/gm of mouse body weight
[3]
  inhibition of DNA synthesis: not inhibitory
[4]
  inhibition of protein synthesis: not inhibitory
[5]
  inhibition at 5 µM: 100%
[6]; 0.05-0.5 μM PPMP
  effect on sphingomyelin synthase activity: initial, rapid decrease in the sphingomyelin synthase activity
[6]; second pool
  concentration at which the second pool of enzyme is quantitatively inhibited: 100 to 500 µM
[6]; sensitive pool
  concentration at which the sensitive pool of sphingomyelin synthase is completely inhibited: 1 to 5 µM
[7]
  effect on parasite in a single cycle of expansion in culture: inhibited
[8]
  effect on parasite in a single cycle of expansion in culture: inhibited
[9]
  effect on schizont maturation and merozoite invasion into erythrocytes: not to block either schizont maturation or merozoite invasion into erythrocytes
  fate of schizonts greater than 40 h in the cycle: mature and rupture
[9]; then washout
  development of rings formed in drug after washing free of the drug: developed normally in culture
